Laboratory results from ChEMBL document CHEMBL1201862, “PubChem BioAssay data set” (2004).
Active and inactive are the calls of the source.

What was measured:
[1] = molecular target: Photoreceptor-specific nuclear receptor (Homo sapiens, UniProt Q9Y5X4); format: functional, cell-based;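 further: CHO-S cells with Gal4-NCOR and VP16-NR2E3 two-hybrid luciferase reporter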
[2] = bead-based luminescence quenchers, dual-tagged ARNT – biochemical, AlphaScreen, cherry-pick, artefact control for ARNT-TACC3 interaction inhibitor project, dose response (AID 651705); format: functional;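 further: AlphaScreen bead proximity signal that flags compounds interfering with the detection technology; potency reflects signal decrease which marks the compound as an assay artifact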
[3] = molecular target: T1, Interleukin-8 (Homo sapiens, UniProt P10145); assay: Dose Response confirmation of uHTS small molecule hits for cystic fibrosis induced NFkb Inhibitors in a TNFa-induced IL8 counterscreen.; format: functional; settings: read-out: IC50_Mean
[4] = molecular target: T1, Interleukin-8; assay: Dose Response confirmation of uHTS small molecule hits for cystic fibrosis induced NFkb Inhibitors in a PAF-induced IL8 counterscreen.; format: functional; settings: read-out: IC50_Mean
[5] = molecular target: T2, Probable nicotinate-nucleotide adenylyltransferase (Staphylococcus aureus (strain N315), UniProt P65502); format: functional, Staphylococcus aureus subsp. aureus N315; settings: read-out: IC50_Mean;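 on IC50 Mean: confirmatory dose-response retesting of NadD inhibitor hits first found in an ultra-high-throughput screen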
[6] = molecular target: T2, Probable nicotinate-nucleotide adenylyltransferase; format: functional, Staphylococcus aureus subsp. aureus N315
[7] = molecular target: Potassium voltage-gated channel subfamily KQT member 2 (Rattus norvegicus, UniProt O88943); assay: blockers of KCNQ2 channel current – cell-based, automated electrophysiology, set II, rat KCNQ2, dose response (AID 588637); format: functional
[8] = molecular target: Adenosylmethionine-8-amino-7-oxononanoate aminotransferase (Mycobacterium tuberculosis, UniProt P9WQ81); assay: Mycobacterium tuberculosis BioA enzyme inhibitor Measured in Biochemical System Using Plate Reader - 2163-02_Inhibitor_Dose_CherryPick_Activity.; format: functional, Mycobacterium tuberculosis UT205
[9] = molecular target: Hexokinase (Trypanosoma brucei, UniProt Q38C41); assay: Confirmation assay for inhibitors of Trypanosoma brucei hexokinase 1-Analogue-first series. [Related pubchem assays (depositor defined):AID1430, AID1632, AID2516, AID2560, AID2579, AID2600, AID449725, AID492951]; format: functional
[10] = molecular target: Glucose-6-phosphate 1-dehydrogenase (Homo sapiens, UniProt P11413); assay: inhibition of Homo sapiens G6PD, dose series – biochemical, fluorescence, selectivity assay for P. falciparum G6PD inhibitor project, dose response (AID 504792); format: functional
[11] = molecular target: Mitochondrial peptide methionine sulfoxide reductase (Bos taurus, UniProt P54149); assay: Absorbance-based biochemical high throughput dose response assay for activators of Methionine sulfoxide reductase A (MsrA).; format: functional
[12] = tested on: CHO; assay: CHO cell viability loss, potency – luminescence, cytotoxicity control for TLR9-MyD88 binding inhibitor project, dose response (AID 588339); format: functional, cell-based, hamster; settings: Cricetulus griseus;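 further: CHO cells stably coexpressing TLR9 and MyD88 fusions from primary screen; compound exposure lasted 48 hours before viability readout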
[13] = molecular target: Beta Lactamase (Pseudomonas aeruginosa, UniProt Q932Y6); assay: BLA reporter interference, concentration series – BLA reporter cells, FRET fluorescence, artefact control for TLR9-MyD88 binding inhibitor project, dose response (AID 588341); format: cell-based;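 further: cell based assay in CHO-K1 cells stably expressing beta-lactamase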
[14] = molecular target: T3, Orexin/Hypocretin receptor type 1 (Homo sapiens, UniProt O43613); assay: (§1) Fluorescence-based cell-based high throughput dose response assay for antagonists of the orexin 1 receptor (OX1R; HCRTR1). [Related pubchem assays (depositor defined):AID434989, AID435008, AID463079, AID485270, AID492963, AID492964, AID492965, AID493232, AID504717, AID504718]; format: functional
T3 sequence (O43613 whole entry): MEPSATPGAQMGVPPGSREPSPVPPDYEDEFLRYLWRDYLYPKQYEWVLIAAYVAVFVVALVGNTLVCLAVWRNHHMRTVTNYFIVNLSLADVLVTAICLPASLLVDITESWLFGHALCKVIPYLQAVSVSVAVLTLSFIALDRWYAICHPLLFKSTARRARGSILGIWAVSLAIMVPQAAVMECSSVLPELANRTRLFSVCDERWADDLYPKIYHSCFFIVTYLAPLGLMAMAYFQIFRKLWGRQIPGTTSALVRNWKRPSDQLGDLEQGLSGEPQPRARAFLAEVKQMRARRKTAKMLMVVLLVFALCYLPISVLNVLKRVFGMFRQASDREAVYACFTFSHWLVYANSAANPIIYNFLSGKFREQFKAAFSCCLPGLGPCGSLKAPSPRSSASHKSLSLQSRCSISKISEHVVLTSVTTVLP

[15] = molecular target: T4, Orexin receptor type 2 (Homo sapiens, UniProt O43614); assay: Counterscreen assay for antagonists of the orexin 1 receptor (OX1R; HCRTR1): Fluorescence-based cell-based dose response assay for antagonists of the orexin 2 receptor (OX2R; HCRTR2), run by assay provider.; format: functional
T4 sequence (O43614 whole entry): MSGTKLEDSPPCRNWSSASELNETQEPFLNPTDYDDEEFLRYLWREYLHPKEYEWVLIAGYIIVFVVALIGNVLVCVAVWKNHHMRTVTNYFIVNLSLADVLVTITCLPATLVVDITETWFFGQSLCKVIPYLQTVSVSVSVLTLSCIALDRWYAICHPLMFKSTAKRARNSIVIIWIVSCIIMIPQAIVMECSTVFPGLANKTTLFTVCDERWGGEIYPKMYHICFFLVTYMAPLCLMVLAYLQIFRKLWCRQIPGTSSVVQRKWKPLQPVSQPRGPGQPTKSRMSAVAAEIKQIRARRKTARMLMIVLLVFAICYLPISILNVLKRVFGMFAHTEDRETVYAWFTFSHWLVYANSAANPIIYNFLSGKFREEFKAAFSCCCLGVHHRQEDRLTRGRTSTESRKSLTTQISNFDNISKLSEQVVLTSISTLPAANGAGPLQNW

[16] = (§2) Counterscreen for antagonists of the orexin 1 receptor (OX1R; HCRTR1): Fluorescence-based cell-based high throughput dose response assay to identify antagonists of the parental CHO cell line. [Related pubchem assays (depositor defined):AID434989, AID435008, AID463079, AID485270, AID492963, AID492964, AID492965, AID493232, AID504699, AID504701]; format: functional
[17] = tested on: CHO-K1; assay: as §2, with “Homogeneous time resolved fluorescence (HTRF)-based” for “Fluorescence-based”, “cell-based” for “cell-based high throughput”, “CHO-K1” for “CHO”; format: functional; settings: Cricetulus griseus;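 further: potency for inhibition of ATP-stimulated IP1 production as antagonists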
[18] = molecular target: T4, Orexin receptor type 2; assay: Counterscreen assay for antagonists of the orexin 1 receptor (OX1R; HCRTR1): Homogeneous Time Resolved Fluorescence (HTRF)-based cell-based dose response assay for antagonists of the orexin 2 receptor (OX2R; HCRTR2), run by assay provider.; format: functional
[19] = molecular target: T3, Orexin/Hypocretin receptor type 1; assay: as §1, with “Homogeneous Time Resolved Fluorescence (HTRF)-based” for “Fluorescence-based”; format: functional
[20] = loss of viability in HepG2 cells – cell-based, CellTiter-Glo, cherry-picked, cytotoxicity control for Shn3 inhibitor project, dose response (AID 624134); format: functional
[21] = reduction of Shn3 3'UTR-driven luciferase in osteoblasts – cell-based, Clone20 osteoblasts, firefly luciferase, cherry-picked, dose response (AID 624132); format: functional;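 further: firefly luciferase luminescence from reporter carrying the Shn3 3'UTR in osteoblasts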
[22] = non-specific 3'UTR reporter inhibition in Clone20-Shn3RL – cell-based, Renilla luciferase, cherry-picked, counter-screen for Shn3 inhibitor project, dose response (AID 624133); format: functional
[23] = molecular target: Protein Wnt-3a (Mus musculus, UniProt P27467); assay: antagonism of Wnt3a pathway luciferase reporter – Wnt-LIGHT cells, luminescence, selectivity assay for Gli-SUFU antagonist project, dose response (AID 651570); format: functional; settings: read-out: IC50_Mean;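 further: Wnt-LIGHT reporter cells stimulated with conditioned medium from Wnt3a-producing cells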
[24] = molecular target: Melanocortin receptor 4 (Homo sapiens, UniProt P32245); format: functional, cell-based;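 further: Cell-based assay with luminescence read-out, confirmatory dose-response testing for agonist activity of biased ligands at MC4R; human U2OS cells with tagged receptor and beta-arrestin; potency of agonists that increase receptor coupling to beta-arrestin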
[25] = molecular target: Dual specificity protein kinase CLK4 (Homo sapiens, UniProt Q9HAZ1); format: functional
[26] = molecular target: Serine/threonine-protein kinase pim-1 (Homo sapiens, UniProt P11309); format: functional
[27] = molecular target: Casein kinase I isoform gamma-1 (Homo sapiens, UniProt Q9HCP0); format: functional;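 further: measured as the CSNK1G1 member of a kinome profiling panel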
[28] = molecular target: Rho-associated protein kinase 1 (Homo sapiens, UniProt Q13464); format: functional;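 further: measured within a broad kinome-wide panel profiling many kinases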
[29] = molecular target: Cell division cycle 7-related protein kinase (Homo sapiens, UniProt O00311); format: functional;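 further: value obtained from a kinome-wide kinase panel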
[30] = molecular target: Cyclin-dependent kinase 9 (Homo sapiens, UniProt P50750); format: functional;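 further: value from the CDK9 entry of a kinome-spanning kinase panel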
[31] = molecular target: Cyclin-dependent kinase 7 (Homo sapiens, UniProt P50613); format: functional;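 further: value comes from a kinome-wide kinase profiling panel in which CDK7 is one member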
[32] = molecular target: Ras and Rab interactor 1/Tyrosine-protein kinase ABL1 (Homo sapiens, UniProt P00519+Q13671); format: functional;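 further: biochemical TR-FRET dose-response test measuring inhibition of binding between Rin1 and Abl proteins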
[33] = molecular target: T5, Aryl hydrocarbon receptor (Homo sapiens, UniProt P35869); settings: Potency;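 further: confirmatory quantitative high-throughput screen measuring activation of the AhR signaling pathway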
T5 sequence (P35869 whole entry): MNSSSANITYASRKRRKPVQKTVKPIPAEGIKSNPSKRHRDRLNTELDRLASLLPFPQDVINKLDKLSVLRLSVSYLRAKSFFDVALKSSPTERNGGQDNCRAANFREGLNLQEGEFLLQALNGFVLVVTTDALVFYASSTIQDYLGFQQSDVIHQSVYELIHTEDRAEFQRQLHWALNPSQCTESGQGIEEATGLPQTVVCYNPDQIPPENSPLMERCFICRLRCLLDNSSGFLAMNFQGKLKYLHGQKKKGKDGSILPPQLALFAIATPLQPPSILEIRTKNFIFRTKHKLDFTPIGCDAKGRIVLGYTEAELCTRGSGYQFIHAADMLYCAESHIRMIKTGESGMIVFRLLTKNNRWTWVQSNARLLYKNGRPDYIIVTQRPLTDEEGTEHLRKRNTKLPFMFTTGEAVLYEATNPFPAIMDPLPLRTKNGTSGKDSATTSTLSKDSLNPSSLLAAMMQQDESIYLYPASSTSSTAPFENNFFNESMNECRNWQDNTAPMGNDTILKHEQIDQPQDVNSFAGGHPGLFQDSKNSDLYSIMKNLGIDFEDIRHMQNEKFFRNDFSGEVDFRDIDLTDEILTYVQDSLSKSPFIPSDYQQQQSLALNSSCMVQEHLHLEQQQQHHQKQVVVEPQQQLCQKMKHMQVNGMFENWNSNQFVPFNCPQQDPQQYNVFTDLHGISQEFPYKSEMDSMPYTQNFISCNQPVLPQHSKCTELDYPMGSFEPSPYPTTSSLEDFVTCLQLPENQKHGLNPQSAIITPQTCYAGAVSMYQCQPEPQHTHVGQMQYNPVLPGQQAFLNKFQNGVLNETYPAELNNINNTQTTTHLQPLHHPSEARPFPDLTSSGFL

T2 sequence (P65502 whole entry): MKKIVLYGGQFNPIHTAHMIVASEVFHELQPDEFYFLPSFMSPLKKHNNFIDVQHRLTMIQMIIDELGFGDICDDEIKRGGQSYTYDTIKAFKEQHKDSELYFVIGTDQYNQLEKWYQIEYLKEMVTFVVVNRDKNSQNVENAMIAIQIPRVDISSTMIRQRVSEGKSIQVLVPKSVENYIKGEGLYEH
Sequence of Dual specificity protein kinase CLK4 (Q9HAZ1 whole entry): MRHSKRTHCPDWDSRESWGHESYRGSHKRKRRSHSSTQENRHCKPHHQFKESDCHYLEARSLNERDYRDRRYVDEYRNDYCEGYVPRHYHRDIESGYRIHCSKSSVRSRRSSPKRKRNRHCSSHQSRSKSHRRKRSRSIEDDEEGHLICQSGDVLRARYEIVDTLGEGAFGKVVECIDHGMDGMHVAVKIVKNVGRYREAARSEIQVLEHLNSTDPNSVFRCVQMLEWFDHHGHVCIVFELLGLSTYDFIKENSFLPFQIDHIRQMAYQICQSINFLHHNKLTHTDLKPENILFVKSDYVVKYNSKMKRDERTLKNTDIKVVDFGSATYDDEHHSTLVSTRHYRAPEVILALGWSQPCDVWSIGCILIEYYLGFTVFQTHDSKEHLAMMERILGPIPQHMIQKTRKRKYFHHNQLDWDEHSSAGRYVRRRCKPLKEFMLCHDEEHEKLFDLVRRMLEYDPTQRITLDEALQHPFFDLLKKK
T1 sequence (P10145 whole entry): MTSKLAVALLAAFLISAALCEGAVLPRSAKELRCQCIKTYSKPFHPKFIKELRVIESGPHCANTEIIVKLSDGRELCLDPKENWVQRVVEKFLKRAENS
Sequence of Ras and Rab interactor 1/Tyrosine-protein kinase ABL1 (P00519 whole entry): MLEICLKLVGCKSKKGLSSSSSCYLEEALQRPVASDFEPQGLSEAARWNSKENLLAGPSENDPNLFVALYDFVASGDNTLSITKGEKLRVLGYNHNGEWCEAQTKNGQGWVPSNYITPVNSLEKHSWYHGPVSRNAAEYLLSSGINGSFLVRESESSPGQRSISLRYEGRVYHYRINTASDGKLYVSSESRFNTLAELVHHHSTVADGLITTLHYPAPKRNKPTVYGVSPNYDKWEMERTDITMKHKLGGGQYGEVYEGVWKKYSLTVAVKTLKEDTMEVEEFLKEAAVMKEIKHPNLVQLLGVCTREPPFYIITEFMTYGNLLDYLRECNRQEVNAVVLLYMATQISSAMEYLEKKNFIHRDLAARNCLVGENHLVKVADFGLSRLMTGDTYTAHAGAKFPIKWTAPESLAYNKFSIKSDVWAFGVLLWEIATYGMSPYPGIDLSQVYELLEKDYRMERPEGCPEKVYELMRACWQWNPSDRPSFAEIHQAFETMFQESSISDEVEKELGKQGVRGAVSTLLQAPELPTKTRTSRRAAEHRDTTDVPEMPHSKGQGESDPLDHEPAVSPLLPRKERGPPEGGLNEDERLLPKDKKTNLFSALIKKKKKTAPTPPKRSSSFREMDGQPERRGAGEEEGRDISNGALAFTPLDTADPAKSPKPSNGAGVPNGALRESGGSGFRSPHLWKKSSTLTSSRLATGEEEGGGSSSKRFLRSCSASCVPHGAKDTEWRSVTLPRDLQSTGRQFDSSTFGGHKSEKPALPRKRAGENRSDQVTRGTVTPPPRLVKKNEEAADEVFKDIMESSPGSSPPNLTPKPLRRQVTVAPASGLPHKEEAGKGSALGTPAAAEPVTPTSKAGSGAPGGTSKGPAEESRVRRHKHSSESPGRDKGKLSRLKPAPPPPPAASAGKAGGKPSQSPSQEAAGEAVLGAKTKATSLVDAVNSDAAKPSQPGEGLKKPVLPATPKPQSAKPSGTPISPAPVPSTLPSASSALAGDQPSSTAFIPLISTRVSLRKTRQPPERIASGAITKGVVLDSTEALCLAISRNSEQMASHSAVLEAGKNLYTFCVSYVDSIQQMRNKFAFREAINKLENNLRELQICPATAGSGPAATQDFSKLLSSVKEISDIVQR
Sequence of Ras and Rab interactor 1/Tyrosine-protein kinase ABL1 (Q13671 whole entry): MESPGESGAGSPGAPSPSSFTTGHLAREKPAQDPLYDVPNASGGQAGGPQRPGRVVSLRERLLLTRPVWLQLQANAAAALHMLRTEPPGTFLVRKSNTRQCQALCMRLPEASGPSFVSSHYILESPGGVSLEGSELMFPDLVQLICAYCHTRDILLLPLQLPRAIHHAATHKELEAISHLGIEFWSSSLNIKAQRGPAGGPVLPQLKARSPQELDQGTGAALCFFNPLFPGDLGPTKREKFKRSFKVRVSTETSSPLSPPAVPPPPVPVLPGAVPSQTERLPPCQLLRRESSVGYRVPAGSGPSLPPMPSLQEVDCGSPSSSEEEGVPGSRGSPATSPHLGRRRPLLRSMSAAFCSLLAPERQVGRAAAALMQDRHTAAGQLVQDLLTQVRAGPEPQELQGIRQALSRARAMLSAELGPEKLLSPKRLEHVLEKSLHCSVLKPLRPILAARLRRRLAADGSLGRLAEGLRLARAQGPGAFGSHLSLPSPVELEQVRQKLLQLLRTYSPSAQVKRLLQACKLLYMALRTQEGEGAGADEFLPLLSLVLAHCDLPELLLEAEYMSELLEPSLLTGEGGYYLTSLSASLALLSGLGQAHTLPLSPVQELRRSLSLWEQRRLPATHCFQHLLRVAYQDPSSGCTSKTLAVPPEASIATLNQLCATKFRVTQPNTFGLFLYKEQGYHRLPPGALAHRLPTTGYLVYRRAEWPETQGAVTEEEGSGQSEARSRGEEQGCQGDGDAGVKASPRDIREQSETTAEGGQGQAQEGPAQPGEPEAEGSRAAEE
Sequence of Potassium voltage-gated channel subfamily KQT member 2 (O88943 whole entry): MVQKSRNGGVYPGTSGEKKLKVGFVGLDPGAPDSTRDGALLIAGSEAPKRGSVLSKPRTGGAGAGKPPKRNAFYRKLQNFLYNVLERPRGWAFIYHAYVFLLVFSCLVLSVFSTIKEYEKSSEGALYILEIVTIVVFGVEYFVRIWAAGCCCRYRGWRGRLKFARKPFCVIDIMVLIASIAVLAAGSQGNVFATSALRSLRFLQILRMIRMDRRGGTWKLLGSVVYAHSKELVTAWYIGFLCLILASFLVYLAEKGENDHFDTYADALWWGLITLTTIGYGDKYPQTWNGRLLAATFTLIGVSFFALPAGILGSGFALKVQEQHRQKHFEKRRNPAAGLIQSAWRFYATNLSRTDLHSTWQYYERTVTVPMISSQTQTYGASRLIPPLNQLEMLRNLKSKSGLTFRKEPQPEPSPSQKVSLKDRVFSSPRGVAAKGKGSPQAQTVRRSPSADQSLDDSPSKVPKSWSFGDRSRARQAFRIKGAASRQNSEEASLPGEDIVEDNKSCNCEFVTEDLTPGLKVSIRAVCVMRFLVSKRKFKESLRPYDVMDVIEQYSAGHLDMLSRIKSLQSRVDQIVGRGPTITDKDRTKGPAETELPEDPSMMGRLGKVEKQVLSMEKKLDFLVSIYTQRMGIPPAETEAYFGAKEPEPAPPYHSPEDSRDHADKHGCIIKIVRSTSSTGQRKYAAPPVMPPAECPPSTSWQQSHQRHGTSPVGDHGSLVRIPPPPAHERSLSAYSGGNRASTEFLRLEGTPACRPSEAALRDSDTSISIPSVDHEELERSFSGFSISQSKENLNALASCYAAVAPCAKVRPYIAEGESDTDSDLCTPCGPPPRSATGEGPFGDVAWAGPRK
Sequence of Hexokinase (Q38C41 whole entry): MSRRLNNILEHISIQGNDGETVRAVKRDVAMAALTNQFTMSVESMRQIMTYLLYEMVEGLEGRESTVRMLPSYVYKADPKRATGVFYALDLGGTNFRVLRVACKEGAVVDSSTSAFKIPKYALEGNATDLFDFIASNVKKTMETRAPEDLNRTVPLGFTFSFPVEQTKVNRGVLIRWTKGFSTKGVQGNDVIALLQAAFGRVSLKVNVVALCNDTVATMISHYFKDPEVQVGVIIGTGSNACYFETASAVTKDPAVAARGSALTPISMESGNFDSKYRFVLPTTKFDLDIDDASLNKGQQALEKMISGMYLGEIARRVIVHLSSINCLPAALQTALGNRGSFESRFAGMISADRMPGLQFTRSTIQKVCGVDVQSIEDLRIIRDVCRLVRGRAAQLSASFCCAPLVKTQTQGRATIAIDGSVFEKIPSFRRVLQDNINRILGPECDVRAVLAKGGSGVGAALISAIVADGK
Sequence of Melanocortin receptor 4 (P32245 whole entry): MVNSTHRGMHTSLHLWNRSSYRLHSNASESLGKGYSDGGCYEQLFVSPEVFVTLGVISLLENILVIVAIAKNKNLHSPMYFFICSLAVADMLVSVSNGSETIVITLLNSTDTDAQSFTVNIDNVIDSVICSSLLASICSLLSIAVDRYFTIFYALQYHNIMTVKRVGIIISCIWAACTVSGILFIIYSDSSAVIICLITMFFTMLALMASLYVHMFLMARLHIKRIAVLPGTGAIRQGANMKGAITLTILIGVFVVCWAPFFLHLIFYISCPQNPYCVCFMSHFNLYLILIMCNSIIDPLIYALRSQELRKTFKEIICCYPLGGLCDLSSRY
Sequence of Mitochondrial peptide methionine sulfoxide reductase (P54149 whole entry, the tested form may be a part): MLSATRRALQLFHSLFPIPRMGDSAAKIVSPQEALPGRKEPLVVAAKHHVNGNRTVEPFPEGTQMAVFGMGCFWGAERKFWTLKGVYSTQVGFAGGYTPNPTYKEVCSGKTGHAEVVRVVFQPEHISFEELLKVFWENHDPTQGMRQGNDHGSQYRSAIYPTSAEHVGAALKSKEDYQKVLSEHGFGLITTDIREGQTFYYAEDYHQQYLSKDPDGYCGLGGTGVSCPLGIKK
Sequence of Cyclin-dependent kinase 7 (P50613 whole entry): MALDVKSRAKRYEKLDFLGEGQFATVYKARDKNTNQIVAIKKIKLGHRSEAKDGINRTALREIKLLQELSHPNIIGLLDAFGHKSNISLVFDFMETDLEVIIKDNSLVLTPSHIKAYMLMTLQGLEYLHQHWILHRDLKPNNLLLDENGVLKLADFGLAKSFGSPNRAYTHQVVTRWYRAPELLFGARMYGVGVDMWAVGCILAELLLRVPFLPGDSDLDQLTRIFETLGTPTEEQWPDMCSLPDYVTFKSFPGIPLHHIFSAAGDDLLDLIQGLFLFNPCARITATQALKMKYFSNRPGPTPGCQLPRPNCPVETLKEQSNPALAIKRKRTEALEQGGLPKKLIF

## Cc1ccc(CN2CC(C(=O)Nc3ncc(C)s3)CC2=O)cc1 (stereo not given)
[1]
  IC50: 1.26 µM (active)

## Nn1c(SCC(=O)Nc2ccc3c(c2)OCCO3)nnc1-c1ccccn1
[2]
  AC50: 107 µM (active)

## COC(=O)N1C(=O)[C@@](c2ccc(OC)cc2)(C(C)C)N1C(=O)OC
[3]
  IC50: 3.22 µM (active)
[4]
  IC50: 2.4 µM (active)

## O=C1CC(=C2c3ccccc3-c3ccccc32)C(=O)N1CCN1CCN(c2cccc(Cl)c2)CC1
[5]
  IC50: 26.6 µM (active)
[6]
  IC50: 13.5 µM (active)

## O=C(CN1CCCc2ccccc21)NCCc1ccc(Cl)cc1
[7]
  IC50: 8.54 µM (active)

## C=CCn1c(SCc2c(C(=O)OC)sc(N)c2C(=O)OC)nnc1-c1ccc(Br)cc1
[8]
  AC50: 0.233 µM (active)

## O=c1c2cc([N+](=O)[O-])ccc2sn1-c1ccccc1
[9]
  IC50: > 25 µM (inactive)
[10]
  IC50: 11.3 µM (active)
[11]
  EC50: > 104 µM (inactive)
[12]
  IC50: 12.1 µM (inactive)
[13]
  IC50: > 49.7 µM (inactive)

## CCc1cc(C(=O)OCC(=O)N2CCC(c3ccccc3)=N2)sc1C
[14]
  IC50: 3.47 µM (active)
[15]
  IC50: > 88.8 µM (inactive)
[16]
  IC50: > 49.8 µM (inactive)
[17]
  IC50: > 66.2 µM (inactive)
[18]
  IC50: > 50 µM (inactive)
[19]
  IC50: 2.45 µM (active)

## Cc1c(C(=O)OC(C)C(=O)N(C)Cc2ccccc2)oc2ccccc12 (stereo not given)
[14]
  IC50: 6.49 µM (active)
[15]
  IC50: 9.6 µM (active)
[16]
  IC50: 43.3 µM (inactive)
[17]
  IC50: > 66.2 µM (inactive)
[18]
  IC50: 5.52 µM (active)
[19]
  IC50: 0.717 µM (active)

## Cc1ccc(S(=O)(=O)N2CCN(C(=O)C3CCN(c4ncnc5sc(C)c(C)c45)CC3)CC2)c(C)c1
[20]
  AC50: 46 µM (active)
[21]
  AC50: 2.12 µM (active)
[22]
  AC50: 1.43 µM (active)
[23]
  IC50: 14.7 µM (active)

## COc1ccccc1-c1cc(NC(C)=O)c2ncc(-c3ccccc3)n2c1
[24]
  EC50: > 89.2 µM (inactive)

## O=C1CC(c2ccc(F)cc2)Cc2[nH]c3cc(Cl)ccc3c(=O)c21 (stereo not given)
[25]
  Ki: 6.31 µM (active)
[26]
  Ki: 3.98 µM (active)
[27]
  Ki: 3.98 µM (active)

## Nc1nonc1-n1cc(CO)nn1
[25]
  Ki: 63.1 µM (active)
[28]
  Ki: 39.8 µM (active)

## COCCN(CCOC)c1nc(OC)cc(-c2c[nH]c3ncccc23)n1
[29]
  Ki: 0.1 µM (active)
[30]
  Ki: > 2.51 µM (inactive)
[31]
  Ki: > 2.51 µM (inactive)

## CCSCCO/C(O)=C1\C(C)=NC2=C(C(=O)CCC2)C1c1coc2ccccc2c1=O (stereo not given)
[32]
  IC50: > 73.5 µM (inactive)

## Nc1ccc(/N=N/c2ccccc2)cc1
[33]
  AC50: 50.1 µM (inconclusive)
